Assay results reported in patent publication US10124012B2, “Method for treatment of hyperglycemia and hyperlipidemia” (priority 2016, dated 2018).

Legend:
[1] = test system: high-fat diet-fed C57BL/6J mouse; experiment: Body weight, tissue weights and food intake in HFD-fed mice; assay type: in vivo, C57BL/6J mice; conditions: HF + Feno: fenofibrate 250 mg/kg/day oral gavage 4 weeks
Excerpt: (§1) The 4-week old male C57BL/6J mice (total amount n=63) were obtained from the National Laboratory Animal Center (Taipei, Taiwan). After acclimatization for one week, all of the mice were randomly assigned into a control (CON) group and a high-fat diet (HFD) group. […] After HFD feeding for 8 weeks, the HFD group was randomly subdivided into six groups (n=9 per group) receiving different treatments and fed on HFD. […] The HF+AnK1, HF+AnK2, and HF+AnK3 groups are collectively termed AnK-treated HFD groups in the following examples. The CON mice were administered vehicle. All treatments were administered via oral gavage once daily. After administration for 4 weeks, all mice were fasted 12 hours, and blood was collected from the retro-orbital sinus under ether anesthesia. At the end of the experiment, the mice were sacrificed via carbon dioxide inhalation. Liver, adipose tissue, and skeletal muscle were collected and immediately stored at −80° C. for target gene analysis.
The metabolic parameters, including body weight, weight gain, and food intake, were performed as the following. Body weight was daily measured at the same time throughout the study. Body weight gain is considered as the weight difference between two consecutive days. The amount of pellet food was weighted, followed by weighting the amount of remaining food after 24 hours. The difference between the two weights is defined as daily food intake.

[2] = test system: high-fat diet-fed C57BL/6J mouse; experiment: Histopathology of liver (hepatocellular ballooning); assay type: in vivo, C57BL/6J mice; conditions: grade 0 absence, 1 few cells, 2 many cells (Table 4); HF + Feno: fenofibrate 250 mg/kg/day oral gavage 4 weeks, HFD-fed mice
Method: (§2) Animal studies were performed and approved under the guidelines of the Institutional Animal Care and Use Committee in Taiwan (12 Mar. 2015). The 4-week old male C57BL/6J mice (total amount n=63) were obtained from the National Laboratory Animal Center (Taipei, Taiwan). After acclimatization for one week, all of the mice were randomly assigned into a control (CON) group and a high-fat diet (HFD) group. For the following 12 weeks, the CON group (n=9) received a control diet or a low-fat diet (Diet 12450B, Research Diets, Inc., New Brunswick, N.J., USA), while the HFD group (n=54) received a high-fat diet (Diet 12451, Research Diets, New Brunswick, N.J., USA). The low-fat diet was composed of protein 20%, carbohydrate 70% and fat 10%, whereas the high-fat diet was composed of protein 20%, carbohydrate 35%, and fat 45% (of total energy, % kcal). After HFD feeding for 8 weeks, the HFD group was randomly subdivided into six groups (n=9 per group) receiving different treatments and fed on HFD. […] The HF+AnK1, HF+AnK2, and HF+AnK3 groups are collectively termed AnK-treated HFD groups in the following examples. The CON mice were administered vehicle. All treatments were administered via oral gavage once daily. After administration for 4 weeks, all mice were fasted 12 hours, and blood was collected from the retro-orbital sinus under ether anesthesia. At the end of the experiment, the mice were sacrificed via carbon dioxide inhalation. Liver, adipose tissue, and skeletal muscle were collected and immediately stored at −80° C. for target gene analysis.
(§3) Parts of visceral adipose and liver specimens were fixed with formalin (200 g/kg) neutral buffered solution and embedded in paraffin. A series of 8 μm-thick sections was cut and stained with hematoxylin and eosin. For microscopic examination, a microscope (Olympus BX51, Olympus, Tokyo, Japan) was used and the images were photographed.
On the basis of previous study, the degree of hepatocellular ballooning is defined in TABLE 4: […]

[3] = test system: high-fat diet-fed C57BL/6J mouse; experiment: Hepatic lipids in HFD-fed mice; assay type: in vivo, C57BL/6J mice; conditions: HF + Feno: fenofibrate 250 mg/kg/day oral gavage 4 weeks
Method: as §2, with “The 4-week old male C57BL/6J mice (total amount n=63) were obtained from the National Laboratory Animal Center (Taipei, Taiwan).” left out, “The low-fat diet was composed of protein 20%, carbohydrate 70% and fat 10%, whereas the high-fat diet was composed of protein 20%, carbohydrate 35%, and fat 45% (of total energy, % kcal).” left out

[4] = test system: high-fat diet-fed C57BL/6J mouse; experiment: Histopathology of epididymal white adipose tissue (adipocyte hypertrophy); assay type: in vivo, C57BL/6J mice; conditions: mean area of epididymal adipocyte; HF + Feno: fenofibrate 250 mg/kg/day oral gavage 4 weeks, HFD-fed mice
Method: as §2, §3
Adipocyte hypertrophy, the pathological enlargement of adipocytes, is often found in subjects with type 2 diabetes and hyperlipidemia. To verify the therapeutic effect of AnK on adipocyte hypertrophy, morphology of the epididymal white adipose tissue from mice of the HF group and the AnK-treated HFD groups was examined. Micrographs (magnification 200X) of the EWAT sections for each group were shown in FIG. 4 and analyzed to determine the mean area of an epididymal adipocyte.

[5] = test system: membrane GLUT4; experiment: Western blotting of skeletal muscular membrane GLUT4 in HFD-fed mice; assay type: in vivo, C57BL/6J mice; conditions: skeletal muscle, AnK 10, 20, 40, Feno 250, Metf 300 mg/kg/day, as compared with the HF group
Excerpt: as §1
About 0.1 g of liver tissue, skeletal muscle, or adipose tissue was used for the homogenate samples. Samples were powdered under liquid nitrogen and homogenized for 20 seconds in 500 μL buffer containing 20 mM Tris-HCl (pH 7.4 at 4° C.), 2% SDS, 5 mM EDTA, 5 mM EGTA, 1 mM dithiothreitol (DTT), 100 mM NaF, 2 mM sodium vanadate, 0.5 mM phenylmethylsulfonyl fluoride, 10 μg/mL leupeptin, and 10 μL/mL pepstatin. The total membrane fraction was used for measurement. The protein concentration in supernatant was determined with a BCA protein assay kit (Thermo Scientific, Rockford, Ill., USA). […] The membrane was blocked with 5% slim milk in Tris-buffered saline (TBS)(Amersham BioSciences, Uppsala, Sweden) containing 0.05% Tween-20 (Bio Rad, CA, USA) and incubated overnight at 4° C. with antibodies at 1:200 dilution. […] Immunoreactive bands were detected with ECL reagent kit (GE Healthcare BioSciences, Buckinghamshire, UK). The intensity of Western blot signals was analyzed using AlphaEase FC software (Alpha Innotech Corporation, Randburg, South Africa). […]

[6] = test system: membrane GLUT4; experiment: Membrane GLUT4 expression in C2C12 cells (Western blotting); assay type: cell-based; conditions: AnK 1, 5, 10 and 25 μg/mL 30 min, insulin 100 nM 25 min, vs CON group
Method: (§4) For the in vitro assay, C2C12 skeletal myoblasts (ATCC CRL-1772) were cultured at 37° C. in Dulbecco's modified Eagle's medium (DMEM; Gibco BRL) supplemented with 10% fetal bovine serum (FBS; Hyclone) and 100 U/ml penicillin and 100 μg/ml streptomycin (Gibco BRL), and split 1:4 using 0.05% trypsin at 80% confluency. Myoblasts were diluted and placed in a 9 cm dish. Cells were cultured to achieve 80-90% confluency and refreshed with […] (2% FBS/DMEM) every 24 hours for 5-7 days. The term “confluency” refers to the proportion of the surface of a culture dish that is covered by adherent cells growing in the dish. 100% confluency refers to complete coverage of the surface by the cells.
(§5) Differentiated C2C12 cells were serum-starved in DMEM/BSA at 37° C. for 2 hours prior to incubation with AnK (at 1, 5, 10, and 25 μg/mL) or vehicle (0.2% dimethyl sulfoxide (DMSO) in saline) for 30 min or with 100 nM insulin for 25 min.
The C2C12 cells of the other group were homogenized in a homogenization buffer having a pH value of about 7.4 and containing 250 mM sucrose, 50 mM Tris, and 0.2 mM edetic acid (EDTA). […]
(§6) Protein concentrations were determined via BCA assay (Pierce). […]
(§7) SDS polyacrylamide gel electrophoresis (SDS-PAGE) and Western blotting. Proteins were detected with antibodies specific for GLUT4, Akt, phospho-Akt (Ser^473), AMPK, and phospho-AMPK (Thr^172).

[7] = test system: phospho-AMPK (Thr^172)/total-AMPK; experiment: AMPK phosphorylation in C2C12 cells (Western blotting); assay type: cell-based; conditions: AnK 1, 5, 10 and 25 μg/mL 30 min, insulin 100 nM 25 min, vs CON group
Method: as §4, §5
(§8) The abovementioned C2C12 cells were then washed three times with phosphate buffered saline (PBS) and divided into two groups. […]
as §6, §7

[8] = test system: phospho-Akt (Ser^473)/total-Akt; experiment: Akt phosphorylation in C2C12 cells (Western blotting); assay type: cell-based; conditions: AnK 1, 5, 10 and 25 μg/mL 30 min, insulin 100 nM 25 min, vs CON group
Method: as §4, §5, §8, §6, §7

Molecule: CC(C)OC(=O)C(C)(C)Oc1ccc(C(=O)c2ccc(Cl)cc2)cc1 [Feno, fenofibrate, reference compound]
- Absolute tissue weight BAT [1]: 0.157 ± 0.013 g
- Absolute tissue weight EWAT [1]: 0.603 ± 0.041 g
- Absolute tissue weight Liver [1]: 1.700 ± 0.070 g
- Absolute tissue weight MWAT [1]: 0.247 ± 0.025 g
- Absolute tissue weight RWAT [1]: 0.181 ± 0.020 g
- Absolute tissue weight Skeletal muscle [1]: 0.428 ± 0.026 g
- Absolute tissue weight Spleen [1]: 0.084 ± 0.005 g
- Final body weight [1]: 27.55 ± 0.84 g
- Weight gain [1]: 0.57 ± 0.55 g
- Absolute tissue weight Visceral fat ([1]; sum of EWAT and RWAT): 0.784 ± 0.052 g
- Hepatocellular ballooning Mean score [2]: 0.5 ± 0.1
- Liver lipids total lipid [3]: 64.9 ± 5.1 mg/g
- Liver lipids triacylglycerol [3]: 47.3 ± 4.6 µmol/g
- Adipocyte size [4]: 6304.2 ± 316.9 μm^2
- increase of membrane GLUT4 levels [5]: 1.98 fold

Molecule: insulin [reference compound]
- protein expression of membrane GLUT4 [6]: enhanced
- expression ratio of phospho-AMPK (p-AMPK) to total-AMPK (t-AMPK) [7]: higher
- expression ratio of phospho-Akt (p-Akt) to total-Akt (t-Akt) [8]: higher
